According to patent US11661404B2, “Prodrug compounds activated by AKR1C3 and their use for treating hyperproliferative disorders” (priority 2018, dated 2023):
Entries after “also recorded” stand apart in the source; their conditions may differ.

Columns and labels:
[1] = system: H460 lung cancer xenografts; test: Tumour growth delay, H460 xenografts; assay type: in vivo, NIH-III mice
Text: (§1) Specific pathogen-free female homozygous nude NIH-III (NIH-Lyst^bg Foxn1^nu Btk^xid) mice were bred by the Vernon Jansen Unit (shared vivarium, University of Auckland). Animals were housed in Techniplast microisolator cages and provided with a standard twelve hour day-night light schedule. Animals received standard rodent diet (Harlan Teklad diet 2018i) and water ad libitum. All animal studies were approved by the University of Auckland Animal Ethics Committee.
(§2) Animals weighed 18-25 g at the time of tumour inoculation. Tumours were grown subcutaneously on the right flank of mice by inoculating cells grown in tissue culture (1×10^7 cells in 100 uL serum free α-MEM). Tumour sizes were monitored three times weekly using electronic callipers and treatments were initiated once tumour diameter reached ≥7 mm.
(§3) Tumour bearing mice were randomised into the appropriate treatment groups and tumour size and body weight recorded. Test compounds were formulated on the day of the experiment and kept in foil-wrapped tubes out of direct fluorescent light. If recruitment of animals occurred over multiple days, the drug stocks were aliquoted into tubes and frozen once at −80° C. until required. Mice were treated with a single (or q4dx3 or q4dx4 or q4dx6) dose of a compound of the invention by intraperitoneal injection and thereafter tumour size and body weight was monitored every second day. Tumour volume was calculated as […] (l×w×w)/6, where l is the major axis and w is the perpendicular minor axis. Animals were culled when they had reached the appropriate survival endpoint or when body weight loss exceeded 20% of the pre-treatment value.

[2] = system: PLC/PRF/5 hepatocellular carcinoma xenografts; test: Tumour growth delay, PLC/PRF/5 xenografts; assay type: in vivo, NIH-III mice; settings: q4dx4 intraperitoneal, 114 mg/kg
Text: as §1, §2
as §3, with “If recruitment of animals occurred over multiple days, the drug stocks were aliquoted into tubes and frozen once at −80° C. until required.” left out, “Animals were culled when they had reached the appropriate survival endpoint or when body weight loss exceeded 20% of the pre-treatment value.” left out

[3] = system: SNU-398^WT (wild type) hepatocellular carcinoma xenografts; test: Tumour growth delay, SNU-398 wild type xenografts; assay type: in vivo, NIH-III mice; settings: q4dx4 intraperitoneal, 50 mg/kg; negligible AKR1C3 expression; FIG. 7
Text: as §1, §2
as §3, with “If recruitment of animals occurred over multiple days, the drug stocks were aliquoted into tubes and frozen once at −80° C. until required.” left out, “Animals were culled when they had reached the appropriate survival endpoint or when body weight loss exceeded 20% of the pre-treatment value.” left out

[4] = Stability in solution by HPLC in water and lactate buffer; assay type: physicochemical
Protocol: (§4) The solubility and stability of compound 641 was studied by HPLC in lactate buffer (pH 4) and water as the free base and the mesylate salt (641.Ms) at 0° C. and room temperature (RT). […] However, this was improved considerably by formulation as the mesylate salt, producing a solubility of greater than 100 mmol/L in lactate buffer and greater than 70 mmol/L in water. […] This stability was improved considerably by reducing the temperature of the solution to 0° C.

[5] = system: SW780 bladder carcinoma xenografts; test: Tumour growth delay, SW780 xenografts; assay type: in vivo, NIH-III mice; settings: q4dx6 intraperitoneal, 50 mg/kg
Text: as §1, §2
as §3, with “If recruitment of animals occurred over multiple days, the drug stocks were aliquoted into tubes and frozen once at −80° C. until required.” left out, “Animals were culled when they had reached the appropriate survival endpoint or when body weight loss exceeded 20% of the pre-treatment value.” left out

[6] = system: SNU-398^AKR1C3 (AKR1C3 over-expressing) hepatocellular carcinoma xenografts; test: Tumour growth delay, SNU-398 AKR1C3 over-expressing xenografts; assay type: in vivo, NIH-III mice; settings: q4dx4 intraperitoneal, 50 mg/kg
Text: as §1, §2
as §3, with “If recruitment of animals occurred over multiple days, the drug stocks were aliquoted into tubes and frozen once at −80° C. until required.” left out, “Animals were culled when they had reached the appropriate survival endpoint or when body weight loss exceeded 20% of the pre-treatment value.” left out

[7] = Solubility by HPLC in water and lactate buffer; assay type: physicochemical; settings: water, room temperature; read-out: Solubility, Water, RT
Protocol: as §4

CN1CCN(S(=O)(=O)c2cc([N+](=O)[O-])ccc2N(CCOS(C)(=O)=O)CCOS(C)(=O)=O)CC1 [Compound 641.Ms, 4-((2-(bis(2-((methylsulfonyl)oxy)ethyl)amino)-5-nitrophenyl)sulfonyl)-1-methylpiperazin-1-ium methanesulfonate]
anti-tumour efficacy (mean tumour volume) ([1]; q4dx4 intraperitoneal, 10, 25, 50, 100 and 150 mg/kg, FIG. 4): significant anti-tumour efficacy | mean percentage change in body weight ([1]; q4dx4 intraperitoneal, 10-150 mg/kg, all dose cohorts): ≥ −10% | tolerability ([1]; q4dx4 intraperitoneal, 10-150 mg/kg, methanesulfonate): well-tolerated; also recorded: well tolerated | anti-tumour efficacy (mean tumour volume) ([1]; single dose intraperitoneal, 237, 422, 562, 750 and 1000 μmol/kg, FIG. 3): significant anti-tumour efficacy | tolerability ([1]; single dose intraperitoneal, 237-1000 μmol/kg): well-tolerated | tolerability of schedule [2]: well-tolerated | anti-tumour activity (mean tumour volume) ([2]; FIG. 5): significant anti-tumour activity | anti-tumour activity (mean tumour volume) [3]: inactive | Stability (% Parent after 24 hours), Lactate Buffer, 0° C. ([4]; lactate buffer (pH 4), 0° C.): 91.7% | Stability (% Parent after 24 hours), Lactate Buffer, RT ([4]; lactate buffer (pH 4), room temperature, methanesulfonate): 51.9% | Stability (% Parent after 24 hours), Water, RT ([4]; water, room temperature): 53.8% | tolerability of schedule [5]: well-tolerated | anti-tumour activity (mean tumour volume) ([5]; FIG. 6): significant anti-tumour activity | anti-tumour activity (mean tumour volume) ([6]; FIG. 7): significant anti-tumour activity | tolerability of schedule ([6]; mice bearing SNU-398^WT or SNU-398^AKR1C3 xenografts): well-tolerated | solubility [7]: > 70 mM
